From ChEMBL document CHEMBL5500370, “Discovery of potent and novel dual NAMPT/BRD4 inhibitors for efficient treatment of hepatocellular carcinoma” (Eur J Med Chem, 2024) come the findings set out here.

A short description of data set [1]: Antiproliferative activity against human LX2 cells incubated for 120 hrs in presence of JQ1 by MTT assay. The format is toxicity, cell-based. Conditions: LX-2 cells.
Data set [2] deals with Hep 3B2. Kind of data set: Induction of apoptosis in human Hep3B cells assessed as viable cells at 10 uM measured after 72 hrs by Annexin V-FITC/PI staining based flow cytometry (reference value: 94.08 %). Format: functional.
Data set [3] concerns Huh-7. Description: cells. The conditions noted are these: Homo sapiens, Huh-7, 120 h.
The subject of data set [4] is Hep 3B2. Kind of data set: Antiproliferative activity against human Hep3B cells measured after 72 hrs. The format is functional, cell-based.
Data set [5] deals with Hep 3B2. Description: Synergistic antiproliferative activity against human Hep3B cells measured after 72 hrs in presence of JQ1. Format: functional, cell-based.
The test system of data set [6] is Hep 3B2. Description: Induction of apoptosis in human Hep3B cells assessed as early apoptotic cells at 10 uM measured after 72 hrs by Annexin V-FITC/PI staining based flow cytometry (reference value: 2.13 %). Format: functional.
The subject of data set [7] is Hep 3B2. Description: Induction of apoptosis in human Hep3B cells assessed as late apoptotic cells at 10 uM measured after 72 hrs by Annexin V-FITC/PI staining based flow cytometry (reference value: 1.05 %). Format: functional.
Data set [8] deals with Hep 3B2. Kind of data set: Induction of cell cycle arrest at S phase in human Hep3B cells at 10 uM measured after 72 hrs by PI/RNase staining based flow cytometry (reference value: 31.90 %). The format is functional.
Data set [9] deals with Hep 3B2. Kind of data set: cells. The conditions noted are these: Homo sapiens, Hep3B, 120 h.
In data set [10] the test system is Hep 3B2. Description: Induction of apoptosis in human Hep3B cells assessed as necrotic cells at 10 uM measured after 72 hrs by Annexin V-FITC/PI staining based flow cytometry (reference value: 2.74 %). The format is functional.
Data set [11] in a line: Antiproliferative activity against human LX2 cells incubated for 120 hrs by MTT assay. Format: toxicity, cell-based. The conditions noted are these: LX-2 cells.
Data set [12] concerns HCCLM3. Kind of data set: cells. Conditions: Homo sapiens, HCCLM3, 120 h.
The subject of data set [13] is Hep 3B2. Description: Induction of cell cycle arrest at G0/G1 phase in human Hep3B cells at 10 uM measured after 72 hrs by PI/RNase staining based flow cytometry (reference value: 56.73 %). Format: functional.
Data set [14] concerns HCCLM3. Description: Antitumor activity against human HCCLM3 cells xenografted in BALB/c nude mouse at 60 mg/kg, ip for 27 days relative to control. Format: functional. The conditions noted are these: time 27 day.
For data set [15], the system named is HCCLM3. Description: Antiproliferative activity against human HCCLM3 cells incubated for 120 hrs in presence of JQ1 by MTT assay. Format: functional, cell-based. Conditions: HCCLM3, 120 h.
The subject of data set [16] is Hep 3B2. Kind of data set: Induction of cell cycle arrest at G2/M phase in human Hep3B cells at 10 uM measured after 72 hrs by PI/RNase staining based flow cytometry (reference value: 11.37 %). Format: functional.
Data set [17] relates to Huh-7. Kind of data set: Antiproliferative activity against human Huh-7 cells incubated for 120 hrs in presence of JQ1 by MTT assay. The format is functional, cell-based. Conditions: Huh-7, 120 h.
For data set [18], the target named is Nicotinamide phosphoribosyltransferase (Homo sapiens, UniProt P43490). Description: Inhibition of recombinant NAMPT (unknown origin) by fluorescence based assay.
Sequence of Nicotinamide phosphoribosyltransferase (P43490 whole entry): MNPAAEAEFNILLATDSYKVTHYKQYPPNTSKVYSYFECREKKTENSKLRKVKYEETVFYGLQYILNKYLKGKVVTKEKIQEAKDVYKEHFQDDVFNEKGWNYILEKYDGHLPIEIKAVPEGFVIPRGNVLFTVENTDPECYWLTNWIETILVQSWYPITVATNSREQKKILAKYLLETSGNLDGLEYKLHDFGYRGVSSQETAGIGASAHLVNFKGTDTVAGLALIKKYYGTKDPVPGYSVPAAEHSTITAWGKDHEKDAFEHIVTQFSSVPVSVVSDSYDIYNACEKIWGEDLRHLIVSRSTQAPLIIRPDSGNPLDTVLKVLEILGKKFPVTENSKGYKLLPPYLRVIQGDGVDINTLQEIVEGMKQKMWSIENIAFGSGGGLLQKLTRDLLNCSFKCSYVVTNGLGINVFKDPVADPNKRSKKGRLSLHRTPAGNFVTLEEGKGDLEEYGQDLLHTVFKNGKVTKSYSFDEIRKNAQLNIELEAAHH
Data set [19] concerns the target Bromodomain-containing protein 4 (Homo sapiens, UniProt O60885). Kind of data set: Inhibition of BRD4 (unknown origin) incubated for 120 mins by TR-FRET assay.
The subject of data set [20] is Hep 3B2. Description: Synergistic antiproliferative activity against human Hep3B cells measured after 72 hrs in presence of FK866. The format is functional, cell-based.
Data set [21] concerns HCCLM3. Kind of data set: Antiproliferative activity against human HCCLM3 cells incubated for 120 hrs in presence of FK866 by MTT assay. Format: functional, cell-based. The conditions noted are these: HCCLM3, 120 h.
The test system of data set [22] is Huh-7. Kind of data set: Antiproliferative activity against human Huh-7 cells incubated for 120 hrs in presence of FK866 by MTT assay. The format is functional, cell-based. The conditions noted are these: Huh-7, 120 h.
Data set [23] can be described thus: Antiproliferative activity against human LX2 cells incubated for 120 hrs in presence of FK866 by MTT assay. Format: toxicity, cell-based. Conditions: LX-2 cells.

Turning to `O=C(/C=C/c1cccnc1)NCCCCC1CCN(C(=O)c2ccccc2)CC1` [DAPORINAD], the IC50 at 120 h in [1] was less than 0.032 µM; in data set [11], 0.21 µM. The viability at 10 µM in data set [2] (Homo sapiens, Hep3B, read-out: Activity) turned out to be 86.9%. Also, the IC50 in [3] turned out to be 2.12 µM; in [4], 53.7 µM; in [5], 1.55 µM; in data set [9], 53.7 µM; in data set [12], 1.01 µM; in data set [15] it was 0.4 µM. In addition, the concentration for half-maximal inhibition (IC50) in data set [17] came to 0.67 µM. For the same molecule, the Activity is given as 5.13% in [6]; 4.26% in [7]; 28.62% in data set [8]; 3.67% in data set [10]; 63.07% in data set [13]; 8.31% in data set [16]. For the same molecule, the inhibition in vivo at 60 mg/kg in data set [14] (Mus musculus, HCCLM3, 648 h, read-out: TGI) was 50.1%.

Turning to `Cc1sc2c(c1C)C(c1ccc(Cl)cc1)=N[C@@H](CC(=O)N1CCC(NC(=O)/C=C/c3cccnc3)CC1)c1nnc(C)n1-2`, the values for the IC50 in data set [18], in [9] and in data set [19] were more than 1 µM, 5.39 µM and 0.276 µM, respectively.

As for `Cc1sc2c(c1C)C(c1ccc(Cl)cc1)=N[C@@H](CC(=O)Nc1ccc(CCNC(=O)/C=C/c3cccnc3)cc1)c1nnc(C)n1-2`, the half-inhibitory concentration (IC50) in data set [18] is 0.017 µM; in data set [9], 11.7 µM; in data set [19] it was more than 1 µM.

Regarding `Cc1sc2c(c1C)C(c1ccc(Cl)cc1)=N[C@@H](CC(=O)NCCOCCNC(=O)/C=C/c1cccnc1)c1nnc(C)n1-2`, the 50% inhibitory concentration (IC50) in [18] was found to be 0.167 µM; in [9] it was 27.3 µM; in data set [19], 0.315 µM.

As for `Cc1sc2c(c1C)C(c1ccc(Cl)cc1)=N[C@@H](CC(=O)NCCCCCNC(=O)/C=C/c1cccnc1)c1nnc(C)n1-2`, the IC50 in data set [18] came to 0.115 µM; in data set [9] it was 11.3 µM; in [19], 0.387 µM.

For the molecule `Cc1sc2c(c1C)C(c1ccc(Cl)cc1)=N[C@@H](CC(=O)NCc1ccc(NC(=O)/C=C/c3cccnc3)cc1)c1nnc(C)n1-2`, the values for the IC50 in [18], in [9] and in [19] were 0.309 µM, 9.56 µM and 0.319 µM, respectively.

Take `Cc1sc2c(c1C)C(c1ccc(Cl)cc1)=N[C@@H](CC(=O)OC(C)(C)C)c1nnc(C)n1-2`: the Activity in data set [2] is 74.38%; in data set [6] it was 16.25%; in [7] it was 5.83%; in [8], 17.92%; in data set [10] it was 3.54%; in [13] it was 73.49%. Also, in [16], the Activity was 8.59%. The IC50 was found to be 62.9 µM in data set [3]; 5 µM in data set [4]; 1.55 µM in data set [20]; 0.4 µM in [21]; 0.67 µM in data set [22]; 5 µM in [9]. In addition, in [12], the IC50 was 86.2 µM. Also, the IC50 at 120 h in data set [11] and in [23] was less than 0.032 µM throughout. In data set [14], the TGI worked out at 51.08%.

`Cc1sc2c(c1C)C(c1ccc(Cl)cc1)=N[C@@H](CC(=O)N1CCC(CNC(=O)/C=C/c3cccnc3)CC1)c1nnc(C)n1-2`: the 50% inhibitory concentration (IC50) is more than 1 µM in [18], 5.73 µM in data set [9] and 0.141 µM in data set [19].

As for `Cc1sc2c(c1C)C(c1ccc(Cl)cc1)=N[C@@H](CC(=O)NCCCCCCNC(=O)/C=C/c1cccnc1)c1nnc(C)n1-2`, the IC50 was 0.012 µM in data set [18], 8.14 µM in [9] and 0.153 µM in [19].

Regarding `Cc1sc2c(c1C)C(c1ccc(Cl)cc1)=N[C@@H](CC(=O)N1CCC(CCNC(=O)/C=C/c3cccnc3)CC1)c1nnc(C)n1-2`, the half-maximal inhibitory concentration (IC50) is 0.087 µM in data set [18], 6.26 µM in data set [9] and 0.18 µM in data set [19].

Consider `Cc1sc2c(c1C)C(c1ccc(Cl)cc1)=N[C@@H](CC(=O)NCc1ccc(CNC(=O)/C=C/c3cccnc3)cc1)c1nnc(C)n1-2`, for which the IC50 in data set [18] turned out to be 0.199 µM; in [9], 4.55 µM; in data set [19] it was 0.129 µM.

Take `Cc1sc2c(c1C)C(c1ccc(Cl)cc1)=N[C@@H](CC(=O)Nc1ccc(NC(=O)/C=C/c3cccnc3)cc1)c1nnc(C)n1-2`: the IC50 in data set [18] is 0.456 µM; in data set [9], 24.7 µM; in data set [19], more than 1 µM.

In the case of `Cc1sc2c(c1C)C(c1ccc(Cl)cc1)=N[C@@H](CC(=O)NCCCCNC(=O)/C=C/c1cccnc1)c1nnc(C)n1-2`, the figures for the concentration for half-maximal inhibition (IC50) in [18], in data set [9] and in data set [19] were 0.01 µM, 9.09 µM and 0.127 µM, respectively.

For `Cc1sc2c(c1C)C(c1ccc(Cl)cc1)=N[C@@H](CC(=O)N1CCC(CCCNC(=O)/C=C/c3cccnc3)CC1)c1nnc(C)n1-2`, the half-inhibitory concentration (IC50) in [18] was found to be 0.165 µM; in [9] it was 4.82 µM; in data set [19], 0.615 µM.

On to `Cc1sc2c(c1C)C(c1ccc(Cl)cc1)=N[C@@H](CC(=O)NCCOCCOCCNC(=O)/C=C/c1cccnc1)c1nnc(C)n1-2`, for which the IC50 in data set [18] amounted to 0.013 µM; in [9], 21.9 µM; in [19], 0.525 µM.

Regarding `Cc1sc2c(c1C)C(c1ccc(Cl)cc1)=N[C@@H](CC(=O)N1CCC(CCCCNC(=O)/C=C/c3cccnc3)CC1)c1nnc(C)n1-2`, the results for the IC50 in data set [18], in [9] and in data set [19] were 0.035 µM, 8.08 µM and more than 1 µM, respectively.

In the case of `Cc1sc2c(c1C)C(c1ccc(Cl)cc1)=N[C@@H](CC(=O)NCCNC(=O)/C=C/c1cccnc1)c1nnc(C)n1-2`, the half-maximal inhibitory concentration (IC50) amounted to 0.41 µM in data set [18], 12.9 µM in data set [9] and 0.05 µM in data set [19].
